Data on 1 compound can be found in PMC12051620, “Molecular basis underlying the specificity of an antagonist AA92593 for mammalian melanopsins” (The Journal of Biological Chemistry, 2025).

Data set [1] addresses T1, mouse melanopsin F94^2.61C/S188^ECL2T/S269^6.52A mutant (Mus musculus, UniProt Q9QXZ9, F126C/S221T/S310A).
T1 construct: expressed in transfected cells; host or cells: COS-1
The experiment in a line: NanoBiT Gq dissociation assay. It is filed as cell-based. Conditions: 1.67 and 16.7 μM AA92593; COS-1 cells. From the text:
As described above, we have assessed the inhibitory effect of AA92593 using the GsX GloSensor assay. To confirm whether an antagonistic effect could be observed in another experimental system, we used the NanoBiT G protein dissociation assay ([23]). In this assay, Gq activation (dissociation) is detected as a decrease in NanoLuc luminescence from the Lg-BiT fragment inserted with Gqα and the Sm-BiT fragment fused with Gβγ (see “Experimental procedures”) ([23], [24]). If an antagonistic effect is observed in the NanoBiT assay, the light-dependent decrease in luminescence (Gq dissociation) by melanopsin would be reduced in the presence of AA92593. […]
For GloSensor assay, opsins, GloSensor assay sensor (coded by pGlo-22F), and NanoBiT-tagged G proteins were transiently expressed in COS-1 cells (kindly provided from Dr David Farrens, Oregon Health and Science University) using PEI as described previously ([24], [52]). […] For GFP-fluorescence microscopy, a 35-mm cell culture dish (IWAKI) was transfected with 2 μg melanopsin-GFP plasmid and 8 μg PEI in 400 μl Opti-mem and 1.2 ml D-MEM. […]
The transfected COS-1 cells were incubated at 37 °C, 5% CO2 for 1 day, and the medium was aspirated, followed by the addition of 50 μl of HBSS containing 33.3, 3.33, or 0 μM AA92593, 0.5% DMSO, and 10 μM coelenterazine h (Wako). […] Luminescence was measured using GM-2000 or GM-3510 microplate reader (Promega). […]

A short description of data set [2]: dissolution in HBSS assay solution. Type of data set: physicochemical. To be noted: HBSS solution pH 7.4, 0.5% DMSO. The method, then:
The transfected COS-1 cells were incubated at 37 °C, 5% CO2 for 2 days, and the medium was aspirated and exchanged with 50 μl of HBSS (145 mM NaCl, 10 mM D-glucose, 5 mM KCl, 1 mM MgCl2, 1.7 mM CaCl2, 1.5 mM NaHCO3, 10 mM Hepes, pH 7.4), containing 33.3, 20, 10, 2, 0.2, 0.02, 0.002, or 0 μM AA92593, 0.5% dimetyl sulfoxide (DMSO), and 4% (vol/vol) GloSensor cAMP reagent stock solution. Under our experimental conditions, >50 μM AA92593 was not fully dissolved in the HBSS solution, and we set maximal concentration of AA92593 (Glixx Laboratories) at 33.3 μM (final concentration of 16.7 μM, see below). Then, the cells were incubated at room temperature for 1 h, and luminescence changes were monitored. After incubation of the cells with AA92593, luminescence measurement was interrupted, the plate was ejected, and the cells were added with 50 μl of HBSS containing 0.2 μM 9-cis-retinal. […] Luminescence was measured using GM-2000 or GM-3510 microplate reader (Promega). Luminescence level of each well was measured every 30 s with integration time of 0.6 to 0.9 s. To illuminate opsins, luminescence measurement was interrupted, the plate was ejected, and the plate was illuminated by white light with CN-160 LED video light (light intensity, ∼9 mW/cm^2) (NEEWER). […] After illumination, luminescence measurement was resumed. […]

Some results are limits rather than exact numbers.

T1 sequence (Q9QXZ9 1-381 F126C/S221T/S310A): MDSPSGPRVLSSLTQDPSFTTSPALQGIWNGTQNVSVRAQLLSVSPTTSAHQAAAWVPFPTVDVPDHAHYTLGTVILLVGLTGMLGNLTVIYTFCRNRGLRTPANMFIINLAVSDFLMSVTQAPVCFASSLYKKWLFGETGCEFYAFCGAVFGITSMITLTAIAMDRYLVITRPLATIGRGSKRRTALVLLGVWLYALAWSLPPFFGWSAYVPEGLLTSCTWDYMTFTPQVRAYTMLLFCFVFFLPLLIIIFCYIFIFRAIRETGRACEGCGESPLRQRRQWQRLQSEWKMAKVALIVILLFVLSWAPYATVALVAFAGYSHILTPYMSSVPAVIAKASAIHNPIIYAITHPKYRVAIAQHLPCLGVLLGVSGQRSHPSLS

`COc1ccc(S(=O)(=O)N2CCCCC2)cc1C` [AA92593]: in data set [1], the “antagonistic effect on Gq activation compared to WT” value was “similarly reduced”. Moreover, in data set [2], the “concentration at which AA92593 was not fully dissolved” value is > 50 µM.
